Measured values published in US10793520B2, “Sulfonylaminobenzamide compound and pest control agent” (Nippon Soda Co., Ltd., priority 2016, dated 2020).

Test system: Mythimna separata
Experiment: Efficacy test against Mythimna separata (treated artificial feed)
Settings: in vivo
Protocol: Five parts of the compound of the present invention, 93.6 parts of dimethylformamide and 1.4 parts of a polyoxyethylene alkyl aryl ether were mixed together and dissolved to obtain an emulsion (1) containing 5% of the active constituent.
The mortality rate was calculated using the following equation. Mortality rate (%)=(number of dead pests/number of test pests)×100
First, 0.8 g of an artificial feed (Insecta LFS, manufactured by Nosan Corporation) and 1 μl of the emulsion (I) were mixed thoroughly, and 0.2 g of the resulting mixture was placed in each of the treatment areas of a plastic test container (volume: 1.4 ml) to complete preparation of a test feed.
Two second-instar larvae of Mythimna separata were inoculated into each treatment area, and the test container was sealed with a plastic lid. The sealed container was placed in a temperature-controlled room at 25° C., and the mortality rate and the amount of feed consumed were determined on the fifth day. The test was repeated. Further, a test performed under the same conditions, but with the exception of excluding the compound of the present invention from the emulsion (1), was used as a control.

Compound	mortality rate against Mythimna separata, or amount of feed consumed relative to control
COC(=O)c1cc(Cl)ccc1NC(=O)c1ccc(C(F)(F)F)cc1NS(=O)(=O)C(F)(F)F [a-60]	100%, or the amount of feed consumed was 10% or less
CCOC(=O)c1cc(Br)ccc1NC(=O)c1ccc(C(F)(F)F)cc1NS(=O)(=O)C(F)(F)F [a-61]	100%, or the amount of feed consumed was 10% or less
COC(=O)c1cc(I)ccc1NC(=O)c1ccc(C(F)(F)F)cc1NS(=O)(=O)C(F)(F)F [a-62]	100%, or the amount of feed consumed was 10% or less
COC(=O)c1ccc(C(F)(F)F)cc1NC(=O)c1ccc(C(F)(F)F)cc1NS(=O)(=O)C(F)(F)F [a-63]	100%, or the amount of feed consumed was 10% or less
O=C(Nc1ccc(C(F)(F)F)c(F)c1)c1ccc(C(F)(F)F)cc1NS(=O)(=O)C(F)(F)F [a-64]	100%, or the amount of feed consumed was 10% or less
CCC(=O)c1cc(C(F)(F)F)ccc1NC(=O)c1ccc(C(F)(F)F)cc1NS(=O)(=O)C(F)(F)F [a-66]	100%, or the amount of feed consumed was 10% or less
COC(=O)c1cc(C#N)ccc1NC(=O)c1ccc(C(F)(F)F)cc1NS(=O)(=O)C(F)(F)F [a-67]	100%, or the amount of feed consumed was 10% or less
O=C(Nc1ccc(Br)cc1Cl)c1ccc(C(F)(F)F)cc1NS(=O)(=O)C(F)(F)F [a-68]	100%, or the amount of feed consumed was 10% or less
O=C(Nc1ccc(Br)c(Cl)c1)c1ccc(C(F)(F)F)cc1NS(=O)(=O)C(F)(F)F [a-69]	100%, or the amount of feed consumed was 10% or less
O=C(Nc1ccc(Cl)c(C(F)(F)F)c1)c1ccc(C(F)(F)F)cc1NS(=O)(=O)C(F)(F)F [a-70]	100%, or the amount of feed consumed was 10% or less
COC(=O)c1cc(Cl)cc(Cl)c1NC(=O)c1ccc(C(F)(F)F)cc1NS(=O)(=O)C(F)(F)F [a-71]	100%, or the amount of feed consumed was 10% or less
COC(=O)c1cc(Br)ccc1NC(=O)c1ccc(Br)cc1NS(=O)(=O)C(F)(F)F [a-73]	100%, or the amount of feed consumed was 10% or less
COC(=O)c1cc([N+](=O)[O-])ccc1NC(=O)c1ccc(C(F)(F)F)cc1NS(=O)(=O)C(F)(F)F [a-75]	100%, or the amount of feed consumed was 10% or less
O=C(Nc1ccc(Br)cc1-n1cccn1)c1ccc(C(F)(F)F)cc1NS(=O)(=O)C(F)(F)F [a-76]	100%, or the amount of feed consumed was 10% or less
COC(=O)c1cc(F)c(F)cc1NC(=O)c1ccc(C(F)(F)F)cc1NS(=O)(=O)C(F)(F)F [a-78]	100%, or the amount of feed consumed was 10% or less
COC(=O)c1cc(I)c(Cl)cc1NC(=O)c1ccc(C(F)(F)F)cc1NS(=O)(=O)C(F)(F)F [a-79]	100%, or the amount of feed consumed was 10% or less
O=C(Nc1cc(C(F)(F)F)ccc1-n1cccn1)c1ccc(C(F)(F)F)cc1NS(=O)(=O)C(F)(F)F [a-81]	100%, or the amount of feed consumed was 10% or less
COC(=O)c1cc(C(F)(F)F)c(Cl)cc1NC(=O)c1ccc(C(F)(F)F)cc1NS(=O)(=O)C(F)(F)F [a-82]	100%, or the amount of feed consumed was 10% or less
COC(=O)c1cc(Br)c(Cl)cc1NC(=O)c1ccc(C(F)(F)F)cc1NS(=O)(=O)C(F)(F)F [a-83]	100%, or the amount of feed consumed was 10% or less
COC(=O)c1cc(Br)ccc1NC(=O)c1cc(C(F)(F)F)c(Cl)cc1NS(=O)(=O)C(F)(F)F [a-84]	100%, or the amount of feed consumed was 10% or less
COC(=O)c1cc(Br)c(F)cc1NC(=O)c1ccc(C(F)(F)F)cc1NS(=O)(=O)C(F)(F)F [a-85]	100%, or the amount of feed consumed was 10% or less
COC(=O)c1cc(C(F)(F)F)c(F)cc1NC(=O)c1ccc(C(F)(F)F)cc1NS(=O)(=O)C(F)(F)F [a-86]	100%, or the amount of feed consumed was 10% or less
COC(=O)c1cc(F)c(F)cc1NC(=O)c1cc(F)c(F)cc1NS(=O)(=O)C(F)(F)F [a-87]	100%, or the amount of feed consumed was 10% or less

Compound	mortality rate against Mythimna separata, or amount of feed consumed relative to control
COC(=O)c1cc(F)c(F)cc1NC(=O)c1cc(Br)c(Cl)cc1NS(=O)(=O)C(F)(F)F [a-88]	100%, or the amount of feed consumed was 10% or less
COC(=O)c1cc(Cl)c(F)cc1NC(=O)c1ccc(C(F)(F)F)cc1NS(=O)(=O)C(F)(F)F [a-90]	100%, or the amount of feed consumed was 10% or less
COC(=O)c1ccc(Cl)cc1NC(=O)c1ccc(C(F)(F)F)cc1NS(=O)(=O)C(F)(F)F [a-92]	100%, or the amount of feed consumed was 10% or less
COC(=O)c1cnc(Cl)cc1NC(=O)c1ccc(C(F)(F)F)cc1NS(=O)(=O)C(F)(F)F [a-96]	100%, or the amount of feed consumed was 10% or less
COC(=O)c1cc(F)c(F)cc1NC(=O)c1cc(Cl)c(Cl)cc1NS(=O)(=O)C(F)(F)F [a-97]	100%, or the amount of feed consumed was 10% or less
COC(=O)c1cc(F)c(F)cc1NC(=O)c1cc(F)c(C(F)(F)F)cc1NS(=O)(=O)C(F)(F)F [a-98]	100%, or the amount of feed consumed was 10% or less
COC(=O)c1cc(F)c(F)cc1NC(=O)c1cc(C(F)(F)F)c(F)cc1NS(=O)(=O)C(F)(F)F [a-99]	100%, or the amount of feed consumed was 10% or less
COC(=O)c1cc(F)c(F)cc1NC(=O)c1ccc(-c2ccc(C(F)(F)F)nc2)cc1NS(=O)(=O)C(F)(F)F [a-100]	100%, or the amount of feed consumed was 10% or less
O=C(Nc1ccc(C(F)(F)F)cc1[N+](=O)[O-])c1ccc(C(F)(F)F)cc1NS(=O)(=O)C(F)(F)F [a-103]	100%, or the amount of feed consumed was 10% or less
COC(=O)c1cc(OC(F)(F)F)ccc1NC(=O)c1ccc(C(F)(F)F)cc1NS(=O)(=O)C(F)(F)F [a-109]	100%, or the amount of feed consumed was 10% or less
COC(=O)c1cc(OC(F)(F)F)ccc1NC(=O)c1cc(F)c(F)cc1NS(=O)(=O)C(F)(F)F [a-110]	100%, or the amount of feed consumed was 10% or less
COC(=O)c1cc(C(F)(F)F)ccc1NC(=O)c1cc(F)c(F)cc1NS(=O)(=O)C(F)(F)F [a-111]	100%, or the amount of feed consumed was 10% or less
COC(=O)c1cc(C(F)(F)F)ccc1NC(=O)c1cc(Br)c(Cl)cc1NS(=O)(=O)C(F)(F)F [a-112]	100%, or the amount of feed consumed was 10% or less
COC(=O)c1cc([N+](=O)[O-])ccc1NC(=O)c1cc(F)c(F)cc1NS(=O)(=O)C(F)(F)F [a-113]	100%, or the amount of feed consumed was 10% or less
CON=Cc1cc(Cl)ccc1NC(=O)c1ccc(C(F)(F)F)cc1NS(=O)(=O)C(F)(F)F [a-115]	100%, or the amount of feed consumed was 10% or less
O=C(Nc1cc(F)c(F)cc1F)c1ccc(C(F)(F)F)cc1NS(=O)(=O)C(F)(F)F [a-116]	100%, or the amount of feed consumed was 10% or less
O=C(Nc1ccc(C(F)(F)F)cc1)c1ccc(-c2ccc(C(F)(F)F)nc2)cc1NS(=O)(=O)C(F)(F)F [a-118]	100%, or the amount of feed consumed was 10% or less
O=C(Nc1ccc(C(F)(F)F)c(F)c1)c1ccc(-c2ccc(C(F)(F)F)nc2)cc1NS(=O)(=O)C(F)(F)F [a-119]	100%, or the amount of feed consumed was 10% or less
O=C(Nc1ccc(F)c(C(F)(F)F)c1)c1ccc(-c2ccc(C(F)(F)F)nc2)cc1NS(=O)(=O)C(F)(F)F [a-120]	100%, or the amount of feed consumed was 10% or less
O=C(Nc1ccc([N+](=O)[O-])cc1)c1ccc(-c2ccc(C(F)(F)F)nc2)cc1NS(=O)(=O)C(F)(F)F [a-121]	100%, or the amount of feed consumed was 10% or less
O=C(Nc1ccc(C(F)(F)F)cc1)c1cc(C(F)(F)F)c(F)cc1NS(=O)(=O)C(F)(F)F [a-122]	100%, or the amount of feed consumed was 10% or less
O=C(Nc1ccc(C(F)(F)F)cc1)c1cc(F)c(C(F)(F)F)cc1NS(=O)(=O)C(F)(F)F [a-123]	100%, or the amount of feed consumed was 10% or less
